Data on 18 compounds can be found in ChEMBL document CHEMBL1201862, “PubChem BioAssay data set” (2004).

Calls of active or inactive are those of the source. A value given as a limit tells only on which side of the number the result lay.

A word on the IC50: it is the point on the concentration scale where inhibition reaches its midpoint. As usually defined, the EC50 is the concentration needed to bring the measured effect to its halfway point. For orientation: AC50 means the midpoint of the concentration-response curve, whichever way the signal moves.

Assay [1] is described as follows: cells. Type of assay: functional, cell-based.
The target in assay [2] is T1, Trace amine-associated receptor 1 (Homo sapiens, UniProt Q96RJ0).
T1 sequence (Q96RJ0 whole entry): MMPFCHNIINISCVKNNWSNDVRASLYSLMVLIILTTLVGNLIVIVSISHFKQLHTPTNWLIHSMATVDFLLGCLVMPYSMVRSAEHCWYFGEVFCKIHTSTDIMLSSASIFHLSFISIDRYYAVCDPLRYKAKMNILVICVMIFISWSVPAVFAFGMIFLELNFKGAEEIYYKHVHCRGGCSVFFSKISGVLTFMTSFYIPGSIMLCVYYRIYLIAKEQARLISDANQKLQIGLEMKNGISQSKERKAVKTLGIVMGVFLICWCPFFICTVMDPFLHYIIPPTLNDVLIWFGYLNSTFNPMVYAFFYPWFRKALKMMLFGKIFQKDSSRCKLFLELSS
Nature of the assay: Fluorescence-based cell-based high throughput dose response assay to identify agonists of the human trace amine associated receptor 1 (TAAR1). In kind it is functional.

Assay [3] has as its target T1, Trace amine-associated receptor 1. The experiment in a line: Counterscreen for agonists of the human trace amine associated receptor 1 (hTAAR1): Fluorescence-based cell-based high throughput dose response assay to identify hTAAR1 agonist that also desensitize TAAR1 receptor response. In kind it is functional. For orientation: A counterscreen serves to expose hits that act by an unwanted route or on another target.

A short description of assay [4]: cells. Type of assay: functional, cell-based. The source holds these as a separate data set.
The target of assay [5] is Luciferin 4-monooxygenase (Photinus pyralis, UniProt P08659). The experiment in a line: firefly luciferase enzyme inhibitors, dose response, biochemical, luminescence (AID 1891).
Chain of Luciferin 4-monooxygenase (P08659 whole entry): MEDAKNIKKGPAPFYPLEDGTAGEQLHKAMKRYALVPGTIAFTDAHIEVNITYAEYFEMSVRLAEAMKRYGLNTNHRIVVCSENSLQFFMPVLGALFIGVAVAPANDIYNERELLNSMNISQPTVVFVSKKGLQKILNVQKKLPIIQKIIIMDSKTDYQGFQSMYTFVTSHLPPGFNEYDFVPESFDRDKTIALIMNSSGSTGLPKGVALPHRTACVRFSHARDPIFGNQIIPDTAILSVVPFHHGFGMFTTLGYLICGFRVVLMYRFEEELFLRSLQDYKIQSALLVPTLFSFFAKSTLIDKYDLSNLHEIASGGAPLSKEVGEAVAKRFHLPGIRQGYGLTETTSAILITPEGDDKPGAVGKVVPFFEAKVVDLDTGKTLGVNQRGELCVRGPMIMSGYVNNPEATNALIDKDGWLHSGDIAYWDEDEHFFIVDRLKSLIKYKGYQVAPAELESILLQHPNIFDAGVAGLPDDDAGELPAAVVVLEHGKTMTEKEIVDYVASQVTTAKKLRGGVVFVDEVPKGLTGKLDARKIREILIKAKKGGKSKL
Assay [6] is described as follows: Luminescence Cell-Based Dose Confirmation HTS to Identify Inhibitors of Platelet Dense Granule Release. [Related pubchem assays: 1663 (Primary HTS), 1678 (Summary of Project)]. In kind it is functional.
Assay [7] is described as follows: P. falciparum Dd2 growth inhibitors, dose response, SYBR Green, cherry-picked samples (AID 1159567). Type of assay: functional, cell-based.
The target of the next assay is T2, Leucine aminopeptidase (Plasmodium falciparum 3D7, UniProt Q8IL11).
T2 sequence (Q8IL11 whole entry): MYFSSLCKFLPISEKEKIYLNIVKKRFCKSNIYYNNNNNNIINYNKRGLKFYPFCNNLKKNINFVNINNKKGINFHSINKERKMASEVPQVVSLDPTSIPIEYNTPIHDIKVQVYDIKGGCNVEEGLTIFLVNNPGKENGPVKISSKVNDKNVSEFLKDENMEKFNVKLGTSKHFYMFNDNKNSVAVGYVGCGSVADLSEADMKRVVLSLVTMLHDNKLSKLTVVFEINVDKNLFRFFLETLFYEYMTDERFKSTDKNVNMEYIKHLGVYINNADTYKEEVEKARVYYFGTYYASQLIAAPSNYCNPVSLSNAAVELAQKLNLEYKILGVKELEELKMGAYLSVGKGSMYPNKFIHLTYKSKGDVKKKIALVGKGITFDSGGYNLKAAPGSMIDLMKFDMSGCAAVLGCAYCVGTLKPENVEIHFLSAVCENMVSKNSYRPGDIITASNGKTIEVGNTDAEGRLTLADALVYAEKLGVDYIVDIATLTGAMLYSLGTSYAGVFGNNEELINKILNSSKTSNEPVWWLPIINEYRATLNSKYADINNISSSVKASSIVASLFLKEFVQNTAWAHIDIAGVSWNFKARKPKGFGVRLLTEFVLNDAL
The experiment in a line: P. falciparum M17LAP inhibitors, primary screen, biochemical, fluorogenic H-Leu-NHMec substrate, 1536-well (AID 1619). In kind it is functional.

The target in assay [8] is Induced myeloid leukemia cell differentiation protein Mcl-1 (Homo sapiens, UniProt Q07820). In kind it is functional.
Chain of Induced myeloid leukemia cell differentiation protein Mcl-1 (Q07820 whole entry): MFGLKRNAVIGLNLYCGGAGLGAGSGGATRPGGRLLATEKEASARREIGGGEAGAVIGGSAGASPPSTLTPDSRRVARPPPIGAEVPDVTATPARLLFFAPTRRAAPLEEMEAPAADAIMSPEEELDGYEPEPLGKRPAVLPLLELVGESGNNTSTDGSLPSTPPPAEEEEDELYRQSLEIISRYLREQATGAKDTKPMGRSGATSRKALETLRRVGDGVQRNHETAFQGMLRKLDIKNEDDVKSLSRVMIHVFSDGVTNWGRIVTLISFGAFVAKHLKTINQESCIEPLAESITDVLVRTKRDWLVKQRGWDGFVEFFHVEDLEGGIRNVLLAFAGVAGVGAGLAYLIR
Assay [9] in a line: Luminescence Cell-Based Dose Confirmation HTS to Identify Activators of 5'UTR Stem-Loop Driven Alpha-Synuclein mRNA Translation in H4 Neuroglioblastoma Cells. [Related pubchem assays: 1829 (Project Summary), 1814 (Primary HTS)]. In kind it is functional.
Assay [10] can be described thus: Luminescence Cell-Based Dose Response HTS to Identify Activators of Luciferase Translation or Activity in H4 […] Cells. [Related pubchem assays: 1829 (Project Summary), 1814 (Primary HTS)]. In kind it is functional.
The test system of a further assay is H4. The experiment in a line: Luminescence Cell-Based Dose Response HTS to Identify Activators of 5'UTR Stem-Loop Driven Prion Protein mRNA Translation in H4 Neuroglioblastoma Cells. [Related pubchem assays: 1829 (Project Summary), 1814 (Primary HTS)]. Type of assay: functional. The conditions noted are these: Homo sapiens.
Another assay has as its target Prothrombin (Homo sapiens, UniProt P00734). Nature of the assay: Thrombin 1536 HTS Dose Response Confirmation. [Related pubchem assays: 1046 (Thrombin 1536 HTS; hits were confirmed in this assay)]. Type of assay: functional.
The target in assay [11] is T3, Replicative DNA helicase DnaB (Mycobacterium tuberculosis, UniProt P9WMR3).
T3 sequence (P9WMR3 whole entry): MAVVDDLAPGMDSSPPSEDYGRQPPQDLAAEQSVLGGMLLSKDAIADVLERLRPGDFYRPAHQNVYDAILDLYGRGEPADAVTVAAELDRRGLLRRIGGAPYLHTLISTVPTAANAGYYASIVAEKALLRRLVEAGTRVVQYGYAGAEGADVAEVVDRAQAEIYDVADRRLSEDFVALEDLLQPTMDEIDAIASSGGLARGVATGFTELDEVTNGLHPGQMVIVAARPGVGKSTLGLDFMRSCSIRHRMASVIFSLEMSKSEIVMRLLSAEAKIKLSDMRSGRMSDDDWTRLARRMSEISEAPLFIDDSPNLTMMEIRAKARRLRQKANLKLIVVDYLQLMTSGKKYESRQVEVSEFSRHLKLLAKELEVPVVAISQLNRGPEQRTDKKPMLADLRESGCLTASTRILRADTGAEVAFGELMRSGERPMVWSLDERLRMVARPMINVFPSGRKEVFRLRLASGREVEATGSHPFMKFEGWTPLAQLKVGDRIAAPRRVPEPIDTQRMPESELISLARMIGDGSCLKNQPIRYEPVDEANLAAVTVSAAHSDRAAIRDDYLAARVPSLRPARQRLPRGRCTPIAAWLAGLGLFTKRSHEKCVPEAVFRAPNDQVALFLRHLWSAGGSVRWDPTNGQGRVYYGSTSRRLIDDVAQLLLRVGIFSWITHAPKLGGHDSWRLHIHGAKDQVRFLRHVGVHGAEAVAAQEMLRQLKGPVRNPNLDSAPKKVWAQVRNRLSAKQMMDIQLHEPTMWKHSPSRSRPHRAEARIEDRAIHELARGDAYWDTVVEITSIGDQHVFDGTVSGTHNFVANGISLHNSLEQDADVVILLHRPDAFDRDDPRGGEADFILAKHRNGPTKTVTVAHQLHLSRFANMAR
The experiment in a line: DnaB intein splicing inhibitors, dose response, biochemical, cell-free fluorescence (AID 449749). Type of assay: functional.

For a further assay, the target named is T4, Protein RecA (Mycobacterium tuberculosis, UniProt P9WHJ3).
T4 sequence (P9WHJ3 whole entry): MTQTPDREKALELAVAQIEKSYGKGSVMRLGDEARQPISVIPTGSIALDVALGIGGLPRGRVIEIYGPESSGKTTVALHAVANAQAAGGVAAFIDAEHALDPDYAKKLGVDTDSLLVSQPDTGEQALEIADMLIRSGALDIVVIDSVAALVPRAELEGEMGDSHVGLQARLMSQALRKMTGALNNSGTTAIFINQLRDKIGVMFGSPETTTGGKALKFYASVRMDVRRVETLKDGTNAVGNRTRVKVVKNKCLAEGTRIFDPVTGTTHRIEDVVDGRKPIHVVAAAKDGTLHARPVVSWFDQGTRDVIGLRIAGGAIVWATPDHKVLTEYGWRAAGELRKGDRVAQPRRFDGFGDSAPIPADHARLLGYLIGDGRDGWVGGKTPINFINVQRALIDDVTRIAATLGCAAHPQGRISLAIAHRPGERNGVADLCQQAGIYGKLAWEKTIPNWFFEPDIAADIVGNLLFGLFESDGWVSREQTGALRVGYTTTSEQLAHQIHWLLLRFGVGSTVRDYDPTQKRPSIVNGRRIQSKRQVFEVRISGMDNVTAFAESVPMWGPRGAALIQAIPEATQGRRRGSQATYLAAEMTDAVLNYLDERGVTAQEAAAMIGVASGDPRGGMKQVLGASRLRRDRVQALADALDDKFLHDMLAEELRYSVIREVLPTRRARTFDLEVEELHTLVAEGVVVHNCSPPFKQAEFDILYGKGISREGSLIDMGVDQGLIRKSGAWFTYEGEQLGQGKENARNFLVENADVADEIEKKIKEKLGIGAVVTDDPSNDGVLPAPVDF
The experiment in a line: Fluorescence Cell-Free Homogeneous Dose Retest to Identify Inhibitors of RecA-Intein Splicing Activity. [Related pubchem assays (depositor defined):AID2097, AID2223, AID489010, AID492950]. Type of assay: functional.

As to `COC(=O)[C@@]12C[C@@H](CC(=O)NCCc3ccccc3OC)C(=O)N(Cc3ccc4c(c3)OCO4)C1=CCC(C)(C)C2`, the IC50 in the assay “cells [1]” was > 29.9 µM (inactive); in assay [3], 6.93 µM (active). Moreover, the EC50 in [2] is 2.4 µM (active); in the assay “cells [4]”, > 29.9 µM (inactive).

`O=C(N[C@H](C(=O)N1CCC[C@H]1C(=O)NCCc1ccccc1Cl)C1CCCCC1)c1ccccc1`: the results for the IC50 (in “cells [1]”; in [3]) were > 29.9 µM (inactive) and 5.04 µM (active), respectively. The EC50 was 5.2 µM (active) in [2] and > 29.9 µM (inactive) in the assay “cells [4]”.

Regarding `Clc1ccc(-c2nc3cc[nH]cc-3n2)cc1`, the EC50 in assay [5] is 1 µM (active); in assay [6], 10 µM (active); in assay [2], > 29.9 µM (inactive); in the assay “cells [4]” it was > 29.9 µM (inactive). Also, the IC50 (in “cells [1]”; in [3]) was > 29.9 µM (inactive) each time.

Consider `COc1ccc(CN2C[C@@H](C)[C@@H](OC)CN(C)C(=O)c3cc(NC(=O)c4nc5ccccc5s4)ccc3OC[C@H]2C)cc1`, for which the AC50 in assay [7] was 6.65 µM (active).

In the case of `Cc1ccc(NC(=O)CSCc2nc(O)c3nnn(Cc4ccc(F)cc4)c3n2)c(C)c1`, the 50% inhibitory concentration (IC50) on Leucine aminopeptidase was 2.06 µM (active).

With `CC1=C(C)C(=O)C(CCCCC#CCCCC#CCO)=C(C)C1=O` [DOCEBENONE], the IC50 on Leucine aminopeptidase is 53.4 µM (active).

For `CCN(CC)S(=O)(=O)N1CCC(C(=O)NCC2COc3ccccc3O2)CC1` (stereo not drawn), the IC50 on Leucine aminopeptidase is 11.3 µM (active).

As to `COc1ccc(CCNC(=O)COC(=O)Cc2cccc3ccccc23)cc1`, in assay [8], the IC50 is recorded as 26.3 µM (not active).

In the case of `Oc1nncc(N/N=C/c2ccccc2)c1Cl`, the IC50 in “cells [1]” was > 29.9 µM (inactive); in [3] it was 0.981 µM (active). Besides, the EC50 is 0.29 µM (active) in [2] and > 29.9 µM (inactive) in the assay “cells [4]”.

Regarding `O=C(c1ccco1)n1nc(-c2ccccc2)nc1SCc1ccccc1`, the EC50 in [9] is > 120 µM (not active); in assay [10] it was 40.1 µM (active); with H4 it was 19.6 µM (active). Further, the IC50 at Prothrombin was 0.695 µM (active).

As for `COc1ccc2c3c([nH]c2c1)[C@H](CO)N(Cc1ccccc1)CC31CCN(CC2CC2)CC1`, the AC50 in assay [7] was 2.62 µM (active).

As for `CCCCc1ccc(NC(=O)CSCc2cc(=O)[nH][nH]2)cc1`, on Leucine aminopeptidase, the IC50 was 12.4 µM (active). For the same compound, in assay [11], the AC50 is 3.57 µM (active). Further, the EC50 at Protein RecA is 1.82 µM (active).

In the case of `CCC(=O)NC(=S)Nc1cccc(NC(=O)c2ccccc2)c1`, the IC50 against Prothrombin is > 50 µM (not active).

Turning to `CC(C)(C)NC(=O)c1cc([N+](=O)[O-])ccc1N1CCCCC1`, the IC50 at Prothrombin is given as > 50 µM (not active).

With `CCOc1ccccc1C(=O)Nc1nnc(SCC(=O)N2CCOCC2)s1`, the IC50 against Prothrombin is listed as > 50 µM (not active).

As for `CCNC1=NN=C(c2cc(C)n(CCc3ccccc3)c2C)CS1`, the figures for the IC50 (in the assay “cells [1]”; in assay [3]) were > 29.9 µM (inactive) and 1.06 µM (active), respectively. Also, the EC50 is 0.373 µM (active) in [2] and > 29.9 µM (inactive) in the assay “cells [4]”.

As for `CCOC(=O)N[C@H](C(=O)N1CCC[C@H]1C(=O)NCCc1ccccc1Cl)C1CCCCC1`, the IC50 is > 29.9 µM (inactive) in the assay “cells [1]” and 2.33 µM (active) in assay [3]. For the same compound, the EC50 in assay [2] is 1.91 µM (active); in the assay “cells [4]” it was > 29.9 µM (inactive).

With `CCS(=O)(=O)N1CC(=O)N2[C@H](CO)[C@@H](c3ccc(-c4ccccc4F)cc3)[C@@H]2C1`, in assay [7], the AC50 is 13.6 µM (active).
